A word on the amount remaining: it is the share of the starting amount still present when the sample was taken. A low value points to more turnover. A word on the inhibition: it is the drop in the measured response relative to a control, in per cent.

Data set [1] can be described thus: Preliminary metabolic stability in rat liver microsomes. The class given is in vitro ADME. As to conditions: pH 7.4, RLMs 1 mg/mL, 50 μM compound, 37 °C. A general note: Microsomes from liver hold many membrane-bound enzymes, among them those of drug oxidation.
Another data set relates to HepG2 cells. Briefly: Hepatotoxicity, HepG2 cell viability. The class given is cell-based, human. As to conditions: 72 h incubation.
The target in another data set is T1, α2C (Homo sapiens, UniProt P18825).
T1 construct: Eurofins Pharma Discovery Services (contract screen)
T1 sequence (P18825 1-462): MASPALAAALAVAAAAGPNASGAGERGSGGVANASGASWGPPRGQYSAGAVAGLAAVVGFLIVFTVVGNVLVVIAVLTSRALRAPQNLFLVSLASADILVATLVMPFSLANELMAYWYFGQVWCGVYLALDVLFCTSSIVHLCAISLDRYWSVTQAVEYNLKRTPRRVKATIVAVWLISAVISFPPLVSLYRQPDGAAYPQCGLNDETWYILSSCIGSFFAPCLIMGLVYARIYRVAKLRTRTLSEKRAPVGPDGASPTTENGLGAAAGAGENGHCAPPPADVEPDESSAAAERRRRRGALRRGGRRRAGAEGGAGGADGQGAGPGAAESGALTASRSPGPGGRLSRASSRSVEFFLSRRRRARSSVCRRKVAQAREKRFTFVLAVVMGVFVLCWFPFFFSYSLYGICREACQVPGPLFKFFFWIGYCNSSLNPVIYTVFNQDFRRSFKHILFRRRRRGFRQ
Briefly: Off-target binding screen. As to conditions: read-out: % Inhibition of Control Specific Binding; for inhibition at 0.001 µM: 1 nM; for inhibition at 0.01 µM: 10 nM; for inhibition at 0.1 µM: 100 nM; for inhibition at 1 µM: 1000 nM.

The next data set concerns the target T2, β1 (Homo sapiens, UniProt P08588).
T2 construct: Eurofins Pharma Discovery Services (contract screen)
Description: Off-target binding screen. As to conditions: 1000 nM, read-out: % Inhibition of Control Specific Binding.

The next data set concerns the target T3, H1 (Homo sapiens, UniProt P35367).
T3 construct: Eurofins Pharma Discovery Services (contract assay)
Description: Off-target binding screen. Conditions: 1000 nM, read-out: % Inhibition of Control Specific Binding.

The test system of data set [2] is male Wistar rats. Description: Porsolt forced swimming test. The class given is in vivo. As to conditions: rat FST, 60 min before test, mean ± SEM. Here is the method: The experiments were performed on male Wistar rats (170–200 g) obtained from an accredited animal facility at the Jagiellonian University Medical College, Krakow, Poland. […] Standard laboratory food (LSM-B) and filtered water were freely available. […] Each animal was assigned randomly to treatment groups and only used once (no repeated use of animals). All the experiments were performed by two observers unaware of the treatment applied between 9:00 and 14:00 on separate groups of animals. […] All efforts were made to minimize suffering and to reduce the number of animals used in the experiments and to use only the number of animals necessary to produce reliable scientific data. Each experimental group consisted of 6–8 animals. […] The examined compounds were administered orally 60 min before tests. In antagonism experiments, WAY100635 (Tocris, UK) was administered subcutaneously 75 min before testing. Control animals received vehicle (distilled water) according to the same schedule. […] On the following day (24 h later), the rats were re-placed in the cylinder after administration of test compounds and the total duration of immobility was recorded during the 5-min test period. […] Fresh water was used for each animal.

The subject of data set [3] is male Wistar rats. Briefly: Lower lip retraction. Type of data set: in vivo. As to conditions: rat; for LLR score: 50 min before test, score 0-10; for ability to induce lower lip retraction (LLR), in words: p.o. The method, then: The experiments were performed on male Wistar rats (170–200 g) obtained from an accredited animal facility at the Jagiellonian University Medical College, Krakow, Poland. […] All efforts were made to minimize suffering and to reduce the number of animals used in the experiments and to use only the number of animals necessary to produce reliable scientific data. Each experimental group consisted of 6–8 animals.
The examined compounds were administered orally 60 min before tests. In antagonism experiments, WAY100635 (Tocris, UK) was administered subcutaneously 75 min before testing. Control animals received vehicle (distilled water) according to the same schedule.
Observations were made according to the method described by Kleven et al.([68]) Animals were observed individually during a 10 min period for 10 s of observation per animal. During each of these observation periods, the uninterrupted presence for at least 3 s (1) or absence (0) of LLR was recorded. This cycle was repeated 10 times over a 10 min period; thus, the incidence of a particular behavior could vary from 0 to 10.

The nature of data set [4]: In vitro rat plasma protein binding (ultrafiltration). Type of data set: in vitro ADME. Conditions: rat serum; for fraction unbound at 30 min, 3 µg/mL / fraction unbound at 30 min, 30 µg/mL: male, Wistar, read-out: PPB ± SD (converted). Here is the method:
Fresh blood was harvested from male adult Wistar rats that were sacrificed by exsanguination. The blood was allowed to clot for 20 min at room temperature and then centrifuged at 3000 rpm for 10 min (Universal 32, Hettich, Germany). 56 and 44 dissolved in water were added in volume of 10 μL to separate glass tubes containing 1 mL aliquots of rat serum to achieve final concentrations of 3 and 30 μg/mL each. All tests were run in triplicate. After vortexing, the serum samples were incubated in a water bath at 37 °C for 30 min with gentle shaking. Following this incubation period, 100 μL of serum samples from each tube were transferred to Eppendorf tubes and frozen at −80 °C for analysis. The remaining serum was transferred into Centrifree ultrafiltration devices with Ultracel regenerated cellulose membrane (Merck, Darmstadt, Germany) and centrifuged at 1000g for 15 min (EBA III centrifuge, Hettich, Germany). The collected ultrafiltrates were frozen (−80 °C) for further analysis.

The next data set deals with panel of 45 off-targets. As to conditions: highest off-target affinity, estimated from screening data.

T3 sequence (P35367 whole entry): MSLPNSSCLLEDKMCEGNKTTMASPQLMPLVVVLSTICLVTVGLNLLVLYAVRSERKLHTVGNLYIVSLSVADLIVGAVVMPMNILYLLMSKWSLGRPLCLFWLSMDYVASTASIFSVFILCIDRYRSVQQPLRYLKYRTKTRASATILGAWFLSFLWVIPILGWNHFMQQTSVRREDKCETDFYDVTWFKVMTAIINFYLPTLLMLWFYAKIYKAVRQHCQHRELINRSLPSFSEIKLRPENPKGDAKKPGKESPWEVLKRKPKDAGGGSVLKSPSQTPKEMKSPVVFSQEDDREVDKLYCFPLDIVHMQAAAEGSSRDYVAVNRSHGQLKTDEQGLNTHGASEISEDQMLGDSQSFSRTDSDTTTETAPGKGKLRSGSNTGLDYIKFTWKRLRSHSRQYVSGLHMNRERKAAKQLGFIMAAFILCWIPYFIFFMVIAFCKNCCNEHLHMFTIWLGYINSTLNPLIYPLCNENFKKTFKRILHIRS
T2 sequence (P08588 whole entry): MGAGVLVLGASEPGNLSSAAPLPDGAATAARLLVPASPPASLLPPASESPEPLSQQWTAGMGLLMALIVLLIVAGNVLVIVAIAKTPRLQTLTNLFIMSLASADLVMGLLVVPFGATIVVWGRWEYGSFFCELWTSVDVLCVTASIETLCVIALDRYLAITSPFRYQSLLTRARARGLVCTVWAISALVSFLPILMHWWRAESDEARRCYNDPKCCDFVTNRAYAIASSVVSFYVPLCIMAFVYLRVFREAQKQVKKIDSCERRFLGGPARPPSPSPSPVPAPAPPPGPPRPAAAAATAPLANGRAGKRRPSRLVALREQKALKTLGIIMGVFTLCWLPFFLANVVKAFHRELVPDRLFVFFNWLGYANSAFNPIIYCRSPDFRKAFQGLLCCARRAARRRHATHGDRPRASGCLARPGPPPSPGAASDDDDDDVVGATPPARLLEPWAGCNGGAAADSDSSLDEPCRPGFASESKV

As to `O=C(c1ccc(F)c(Cl)c1)N1CCC(F)(CNCCOc2ccccc2)CC1` [Compound 3], the share remaining at 2 h, 50 μM in data set [1] came to 59.2%. Moreover, in the data set on HepG2 cells, the “hepatotoxicity 50% viability of HepG2 cells” value was >50 µM. In addition, on α2C, the inhibition at 0.001 µM worked out at 1%, the inhibition at 0.01 µM worked out at 18%, the inhibition at 0.1 µM worked out at 66% and the inhibition at 1 µM was 92%. For the same molecule, at β1, the inhibition at 1 µM is -8%. Further, the inhibition at 1 µM on H1 was -9%.

`O=C(c1ccc(F)c(Cl)c1)N1CCC(F)(CNCCOc2cccc3[nH]ccc23)CC1` [Compound 56, (4-(((2-((1H-Indol-4-yl)oxy)ethyl)amino)methyl)-4-fluoropiperidin-1-yl)(3-chloro-4-fluorophenyl)methanone] showed a fraction remaining at 2 h, 50 μM in [1] of 87.4%. In addition, in the data set on HepG2 cells, the “hepatotoxicity 50% viability of HepG2 cells” value is >50 µM. Moreover, in the data set with male Wistar rats [2] (1.25 mg/kg p.o.), the Immobility time is reported as 67.63 ± 7.83 s. The LLR score with male Wistar rats [3] (0.312 mg/kg p.o.) is reported as 10 ± 0. Besides, in the data set with male Wistar rats [3] (1.25 mg/kg p.o.), the LLR score is 10 ± 0. In addition, the “ability to induce lower lip retraction (LLR), in words” value in the data set on male Wistar rats [3] is listed as “elicited a full LLR”. In data set [4] (C0 3 µg/mL), the “fu ± SD” value is listed as 1.1 ± 0.1% and the fraction unbound at 30 min, 3 µg/mL is 0.011. Besides, in data set [4] (C0 30 µg/mL), the “fu ± SD” value worked out at 1.9 ± 0.1% and the fraction unbound at 30 min, 30 µg/mL was 0.019. Moreover, on α2C, the inhibition at 0.001 µM amounted to 3%, the inhibition at 0.01 µM was 18% and the inhibition at 0.1 µM was 74%. Besides, on panel of 45 off-targets, the “affinity for some of the off-targets (pKi)” value is reported as ~8.

In the data set with male Wistar rats [2] (0.04 mg/kg p.o.), `CNc1ccccc1OCCNCC1(F)CCN(C(=O)c2ccc(F)c(Cl)c2)CC1` [Compound 44, (3-Chloro-4-fluorophenyl)(4-fluoro-4-(((2-(2-(methylamino)phenoxy)ethyl)amino)methyl)piperidin-1-yl)methanone] yielded an Immobility time of 199.50 ± 12.35 s. In the data set with male Wistar rats [3] (0.04 mg/kg p.o.), this molecule registered an LLR score of 0. In the data set on male Wistar rats [3], the “ability to induce lower lip retraction (LLR), in words” value is given as “did not induce any significant LLR”. For the same molecule, the “fu ± SD” value is recorded as 1.6 ± 0.1% in [4] (C0 3 µg/mL) and 1.8 ± 0.1% in [4] (C0 30 µg/mL). For the same molecule, in data set [4] (C0 3 µg/mL), the fraction unbound at 30 min, 3 µg/mL is 0.016. The fraction unbound at 30 min, 30 µg/mL in data set [4] (C0 30 µg/mL) was 0.018. The results for the inhibition at 1 µM at α2C, on β1 and on H1 were 32%, -5% and -5%, respectively.
